Patent US8378104B2 (OSI Pharmaceuticals, LLC, priority 2010, dated 2013)
Counter-ions that a name gives are not always drawn. Like-named read-outs stand apart in the source and are kept apart here.

Target: T1, TAK1-TAB1 fusion protein (Homo sapiens, UniProt O43318)
T1 construct: purchased Carna
T1 sequence (O43318 with tags, fused parts or gaps limits assumed): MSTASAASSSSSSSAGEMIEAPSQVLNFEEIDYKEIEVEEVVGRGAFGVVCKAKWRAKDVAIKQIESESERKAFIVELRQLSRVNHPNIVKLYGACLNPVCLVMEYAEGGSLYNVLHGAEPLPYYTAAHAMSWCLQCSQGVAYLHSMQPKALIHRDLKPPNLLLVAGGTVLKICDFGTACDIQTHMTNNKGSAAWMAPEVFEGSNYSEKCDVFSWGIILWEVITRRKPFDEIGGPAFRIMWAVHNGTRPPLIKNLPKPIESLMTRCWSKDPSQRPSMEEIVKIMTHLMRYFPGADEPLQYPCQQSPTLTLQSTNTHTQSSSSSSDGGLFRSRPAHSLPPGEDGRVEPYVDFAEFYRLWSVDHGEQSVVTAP
Assay: TAK1 biochemical assay (AlphaScreen, GST-MAP2K7 substrate)

[1] = TAK1-TAB1 fusion protein, GST-MAP2K7 substrate, read-out: mean TAK1 IC50 (Col. A)

Row | SMILES | IC50 [1] [µM] | IC50 [µM]
1 | CNc1ncc(-c2cnn(C3CCN(C(C)=O)CC3)c2)c2cc(-c3cccc4cnsc34)oc12 [Example 279, 1-(4-{4-[2-(1,2-benzothiazol-7-yl)-7-(methylamino)furo[2,3-c]pyridin-4-yl]-1H-pyrazol-1-yl}piperidin-1-yl)ethanone trifluoroacetate] | 0.1 to 1 | 
2 | Cc1c(-c2cnc(N)c3oc(-c4csc5cnccc45)cc23)cnn1C [Example 292, 4-(1,5-dimethyl-1H-pyrazol-4-yl)-2-thieno[2,3-c]pyridin-3-yl-furo[2,3-c]pyridin-7-ylamine] |  | 1 to 10
3 | Cc1nn(C)c(C)c1-c1cnc(N)c2oc(-c3csc4cnccc34)cc12 [Example 294, 2-thieno[2,3-c]pyridin-3-yl-4-(1,3,5-trimethyl-1H-pyrazol-4-yl)-furo[2,3-c]pyridin-7-ylamine] |  | > 10
4 | Cc1n[nH]c(C)c1-c1cnc(N)c2oc(-c3csc4cnccc34)cc12 [Example 295, 4-(3,5-dimethyl-1H-pyrazol-4-yl)-2-thieno[2,3-c]pyridin-3-yl-furo[2,3-c]pyridin-7-ylamine] | 1 to 10 | 
5 | Nc1ncc(-c2cnn(CC(=O)O)c2)c2cc(-c3csc4cnccc34)oc12 [Example 296, [4-(7-amino-2-thieno[2,3-c]pyridin-3-yl-furo[2,3-c]pyridin-4-yl)-pyrazol-1-yl]-acetic acid] | 0.1 to 1 | 
6 | CCOC(=O)[C@H]1CC[C@H](n2cc(-c3cnc(N)c4oc(-c5csc6cnccc56)cc34)c(C)n2)CC1 [Example 298, 4-[4-(7-amino-2-thieno[2,3-c]pyridin-3-yl-furo[2,3-c]pyridin-4-yl)-3-methyl-pyrazol-1-yl]-cyclohexane carboxylic acid ethyl ester] | > 10 | 
7 | Cc1nn([C@H]2CC[C@H](O)CC2)cc1-c1cnc(N)c2oc(-c3csc4cnccc34)cc12 [Example 304, 4-[4-(7-amino-2-thieno[2,3-c]pyridin-3-yl-furo[2,3-c]pyridin-4-yl)-3-methyl-pyrazol-1-yl]-cyclohexanol] | 1 to 10 | 
8 | Cc1c(-c2cnc(N)c3oc(-c4csc5cnccc45)cc23)cnn1[C@H]1CC[C@H](O)CC1 [Example 305, 4-[4-(7-amino-2-thieno[2,3-c]pyridin-3-yl-furo[2,3-c]pyridin-4-yl)-5-methyl-pyrazol-1-yl]-cyclohexanol] | 1 to 10 | 
9 | Cc1c(-c2cnc(N)c3oc(-c4csc5cnccc45)cc23)cnn1[C@@H]1C[C@@H](O)[C@@H](O)C1 [Example 312, rel-(1R,2S,4S)-4-[4-(7-amino-2-thieno[2,3-c]pyridin-3-yl-furo[2,3-c]pyridin-4-yl)-5-methyl-pyrazol-1-yl]-cyclopentane-1,2-diol] | 1 to 10 | 
10 | Cc1nn(C[C@H](O)CO)cc1-c1cnc(N)c2oc(-c3csc4cnccc34)cc12 [Example 318, (S)-3-[4-(7-amino-2-thieno[2,3-d]pyridin-3-yl-furo[2,3-d]pyridin-4-yl)-3-methyl-pyrazol-1-yl]-propane-1,2-diol] | 1 to 10 | 
11 | Nc1ncc(-c2cnn(CCO)c2)c2cc(-c3csc4cnccc34)oc12 [Example 319, 2-[4-(7-amino-2-thieno[2,3-d]pyridin-3-yl-furo[2,3-d]pyridin-4-yl)-pyrazol-1-yl]-ethanol] | 0.1 to 1 | 
12 | COc1cccc2cc(C=CC(=O)N3CCC(n4cc(-c5cnc(N)c6oc(-c7csc8cnccc78)cc56)cn4)CC3)oc12 [Example 333, 1-{4-[4-(7-amino-2-thieno[2,3-c]pyridin-3-yl-furo[2,3-c]pyridin-4-yl)-pyrazol-1-yl]-piperidin-1-yl}-3-(7-methoxy-benzo-furan-2-yl)-propenone] | 0.1 to 1 | 
13 | Nc1ncc(-c2cnn(C3CCN(C(=O)CCC4CCCCC4)CC3)c2)c2cc(-c3csc4cnccc34)oc12 [Example 334, 1-{4-[4-(7-amino-2-thieno[2,3-c]pyridin-3-yl-furo[2,3-c]pyridin-4-yl)-pyrazol-1-yl]-piperidin-1-yl}-3-cyclohexyl-propan-1-one] | 1 to 10 | 
14 | Nc1ncc(-c2cnn(C3CCN(C(=O)CCC4CCCC4)CC3)c2)c2cc(-c3csc4cnccc34)oc12 [Example 335, 1-{4-[4-(7-Amino-2-thieno[2,3-c]pyridin-3-yl-furo[2,3-c]pyridin-4-yl)-pyrazol-1-yl]-piperidin-1-yl}-3-cyclopentyl-propan-1-one] | 1 to 10 | 
15 | COc1ccccc1NCCC(=O)N1CCC(n2cc(-c3cnc(N)c4oc(-c5cccc6cnsc56)cc34)cn2)CC1 [Example 336, 1-{4-[4-(7-amino-2-benzo[d]iso-thiazol-7-yl-furo[2,3-c]pyridin-4-yl)-pyrazol-1-yl]-piperidin-1-yl}-3-(2-methoxy-phenyl-amino)-propan-1-one] | 0.1 to 1 | 
16 | CC(C)Oc1cccc(/C=C/C(=O)N2CCC(n3cc(-c4cnc(N)c5oc(-c6cccc7cnsc67)cc45)cn3)CC2)c1 [Example 337, (E)-1-{4-[4-(7-amino-2-benzo[d]isothiazol-7-yl-furo[2,3-c]pyridin-4-yl)-pyrazol-1-yl]-piperidin-1-yl}-3-(3-isopropoxy-phenyl)-propenone] | 1 to 10 | 

Row | SMILES | IC50 [1] [µM] | IC50 [µM]
17 | Nc1ncc(-c2cnn(C3CCN(C(=O)Nc4cccc(Cc5ccccc5)c4)CC3)c2)c2cc(-c3cccc4cnsc34)oc12 [Example 339, 4-[4-(7-amino-2-benzo[d]isothiazol-7-yl-furo[2,3-c]pyridin-4-yl)-pyrazol-1-yl]-piperidine-1-carboxylic acid (3-benzyl-phenyl)-amide] | 1 to 10 | 
18 | COc1nn(C)cc1-c1cnc(N)c2oc(-c3csc4cnccc34)cc12 [Example 343, 4-(3-methoxy-1-methyl-1H-pyrazol-4-yl)-2-thieno[2,3-c]pyridin-3-yl-furo[2,3-c]pyridin-7-ylamine] |  | 0.1 to 1
19 | COc1c(-c2cnc(N)c3oc(-c4csc5cnccc45)cc23)cnn1C [Example 344, 4-(5-methoxy-1-methyl-1H-pyrazol-4-yl)-2-thieno[2,3-c]pyridin-3-yl-furo[2,3-c]pyridin-7-ylamine] | 0.1 to 1 | 
20 | Cn1cc(-c2cnc(N)c3oc(-c4csc5cnccc45)cc23)c(C#N)n1 [Example 345, 4-(7-amino-2-thieno[2,3-c]pyridin-3-yl-furo[2,3-c]pyridin-4-yl)-1-methyl-1H-pyrazole-3-carbonitrile] | > 10 | 
21 | CSc1nc2cccc(-c3cc4c(-c5cnn(C6CCN(C(C)=O)CC6)c5)cnc(N)c4o3)c2s1 [Example 352, 1-[4-(4-{7-amino-2-[2-(methylsulfanyl)-1,3-benzothiazol-7-yl]furo[2,3-c]pyridin-4-yl}-1H-pyrazol-1-yl)piperidin-1-yl]ethanone trifluoroacetate] | 1 to 10 | 
22 | CSc1nc2cccc(-c3cc4c(-c5cnn([C@H]6CC[C@H](O)CC6)c5)cnc(N)c4o3)c2s1 [Example 353, trans-4-(4-{7-amino-2-[2-(methylsulfanyl)-1,3-benzothiazol-7-yl]furo[2,3-c]pyridin-4-yl}-1H-pyrazol-1-yl)cyclohexanol Trifluoroacetate (Salt)] | 1 to 10 | 
23 | Nc1ncc(-c2cnn([C@H]3CC[C@H](O)CC3)c2)c2cc(-c3c(-c4cccc(F)c4)ccc4cnsc34)oc12 [Example 356, trans-4-(4-{7-amino-2-[6-(3-fluorophenyl)-1,2-benzothiazol-7-yl]furo[2,3-c]pyridin-4-yl}-1H-pyrazol-1-yl)cyclohexanol] | > 10 | 
24 | Cn1ncc2cccc(-c3cc4c(-c5cnn([C@H]6CC[C@H](O)CC6)c5)cnc(N)c4o3)c21 [Example 357, trans-4-{4-[7-amino-2-(1-methyl-1H-indazol-7-yl)furo[2,3-c]pyridin-4-yl]-1H-pyrazol-1-yl}cyclohexanol] | 1 to 10 | 
25 | CC(=O)N1CCC(n2cc(-c3cnc(N)c4oc(-c5c(F)ccc6ncsc56)cc34)cn2)CC1 [Example 358, 1-(4-{4-[7-amino-2-(6-fluoro-1,3-benzothiazol-7-yl)furo[2,3-c]pyridin-4-yl]-1H-pyrazol-1-yl}piperidin-1-yl)ethanone bis(trifluoroacetate)] | 0.1 to 1 | 
26 | Nc1ncc(-c2cnn([C@H]3CC[C@H](O)CC3)c2)c2cc(-c3c(F)ccc4ncsc34)oc12 [Example 359, trans-4-{4-[7-amino-2-(6-fluoro-1,3-benzothiazol-7-yl)furo[2,3-c]pyridin-4-yl]-1H-pyrazol-1-yl}cyclohexanol] | 1 to 10 | 
27 | Nc1ncc(-c2cnn([C@H]3CC[C@H](O)CC3)c2)c2cc(-c3cc(-c4cccc(F)c4)cc4nnsc34)oc12 [Example 369, trans-4-(4-{7-amino-2-[5-(3-fluorophenyl)-1,2,3-benzothiadiazol-7-yl]furo[2,3-c]pyridin-4-yl}-1H-pyrazol-1-yl)cyclohexanol] | 1 to 10 | 
28 | CN(C)c1nc2cccc(-c3cc4c(-c5cnn([C@H]6CC[C@H](O)CC6)c5)cnc(N)c4o3)c2s1 [Example 371, trans-4-(4-{7-amino-2-[2-(dimethylamino)-1,3-benzothiazol-7-yl]furo[2,3-c]pyridin-4-yl}-1H-pyrazol-1-yl)cyclohexanol Trifluoroacetate (Salt)] | 1 to 10 | 
29 | Nc1ncc(-c2cnn([C@H]3CC[C@H](O)CC3)c2)c2cc(-c3cc(-c4cc[nH]n4)cc4nnsc34)oc12 [Example 374, trans-4-(4-{7-amino-2-[5-(1H-pyrazol-3-yl)-1,2,3-benzothiadiazol-7-yl]furo[2,3-c]pyridin-4-yl}-1H-pyrazol-1-yl)cyclohexanol] | 0.1 to 1 | 
30 | Cc1csc(-c2cnc(N)c3oc(-c4csc5cnccc45)cc23)c1 [Example 375, 4-(4-methyl-thiophen-2-yl)-2-thieno[2,3-c]pyridin-3-yl-furo[2,3-c]pyridin-7-ylamine] | 1 to 10 | 
31 | Cc1cc(-c2cnc(N)c3oc(-c4csc5cnccc45)cc23)c(C)s1 [Example 377, 4-(2,5-dimethyl-thiophen-3-yl)-2-thieno[2,3-c]pyridin-3-yl-furo[2,3-c]pyridin-7-ylamine] | 1 to 10 | 
